Data as given in ChEMBL document CHEMBL6182932, “Potent Cyclic Peptide Inhibitors Disrupt the FANCM-RMI Interaction” (J Med Chem, 2025).
Activity calls are given as the source filed them. No cut-off for these calls is given here. Positions of bridges follow the written chain, without caps; N, C: chain ends. Residues, ends and D or L forms follow the SMILES beside them.

What was measured:
[1] = Displacement of 5-TAMRA-SRDLFSVTFDLGFCSPDSDD-NH2 from recombinant N-terminal 6His/SUMO-tagged RMI1/2 (unknown origin) extracted from Escherichia coli BL21 (DE3) cells incubated for 1 hrs by competitive fluorescence polarization assay; design: species or system Homo sapiens; conditions: for Activity: Homo sapiens
[2] = Binding affinity to N-terminal 6His/Avi-tagged biotinylated RMI1/2 (unknown origin) extracted from Escherichia coli BL21 (DE3) cells assessed as dissociation constant by SPR analysis; design: species or system Homo sapiens
Homo sapiens = species on record: Homo sapiens; test: Binding affinity to N-terminal 6His/Avi-tagged biotinylated RMI1/2 (unknown origin) extracted from Escherichia coli BL21 (DE3)cells by SPR analysis
U2OS = test: Disruption of FANCM-RMI1/2 protein-protein interaction in human U2OS cells assessed as reduction in FANCM pull down at 100 uM incubated for 4 hrs by co-immunoprecipitation based Western blot analysis; type: cell-based
[3] = Proteolytic stability in Tris-HCl buffer at pH 7.8 assessed as alpha-chymotrypsin (unknown origin) mediated compound degradation at 20 uM incubated for 5 hrs by HPLC analysis; type: ADME; conditions: human, pH 7.8, 5 h

Row | Molecule | IC50 [1] | also measured
1 | Ac-YAILFDKYYSIPC-NH2 | 115 nM | –
2 | CC[C@H](C)[C@@H]1NC(=O)[C@H](CC(=O)O)NC(=O)CSC[C@@H](C(N)=O)NC(=O)[C@H](CO)NC(=O)[C@H](Cc2ccccc2)NC(=O)[C@H](Cc2ccc(O)cc2)NC(=O)[C@@H]2CCCN2C(=O)[C@H]([C@@H](C)CC)NC(=O)[C@H](Cc2ccc(O)cc2)NC(=O)[C@H](CO)NC(=O)[C@H](CC(C)C)NC(=O)[C@H](Cc2ccc(O)cc2)NC(=O)[C@H](CCCCN)NC1=O ({CH2CO}-DIKYLSYIPYFSC-NH2; thioether N-13) | – | Activity [1]: inactive
3 | Ac-ASILFDKYYSIPC-NH2 | 700 nM | –
4 | Ac-YSILFDKYYSIPC-NH2 | > 5000 nM | –
5 | Ac-YSIAFDKYYSIPC-NH2 | 496 nM | –
6 | Ac-YSILADKYYSIPC-NH2 | > 5000 nM | –
7 | CC[C@H](C)[C@H](NC(=O)[C@H](CC(=O)O)NC(=O)[C@@H]1CSCC(=O)N[C@@H](Cc2ccc(O)cc2)C(=O)N[C@@H](Cc2ccc(O)cc2)C(=O)N[C@@H](CCCCN)C(=O)N2CCC[C@H]2C(=O)N[C@@H]([C@@H](C)O)C(=O)N1)C(=O)N[C@H](C(=O)N[C@@H](CC(C)C)C(=O)N[C@@H](Cc1ccccc1)C(=O)N[C@@H](Cc1c[nH]c2ccccc12)C(=O)N[C@@H](CO)C(N)=O)[C@@H](C)CC ({CH2CO}-YYKPTCDIILFWS-NH2; thioether N-6) | > 5000 nM | Activity (Homo sapiens): inactive
8 | CC[C@H](C)[C@@H]1NC(=O)[C@H](Cc2ccccc2)NC(=O)[C@H](CO)NC(=O)[C@H]([C@@H](C)CC)NC(=O)[C@H](Cc2ccc(O)cc2)NC(=O)[C@H](CC(=O)O)NC(=O)[C@@H]2CCCN2C(=O)[C@H](CCCCN)NC(=O)[C@H](CC(C)C)NC(=O)CSC[C@@H](C(N)=O)NC(=O)[C@H](Cc2ccc(O)cc2)NC(=O)[C@H](Cc2ccc(O)cc2)NC(=O)[C@H](CO)NC1=O ({CH2CO}-LKPDYISFISYYC-NH2; thioether N-13) | – | Activity [1]: inactive
9 | Ac-YSILFDKYASIPC-NH2 | > 5000 nM | –
10 | Ac-YSILFDKAYSIPC-NH2 | 338 nM | –
11 | Ac-YSILFDKYYSAPC-NH2 | 999 nM | –
12 | CC[C@H](C)[C@H](NC(=O)[C@H](CO)NC(=O)[C@H](Cc1ccc(O)cc1)NC(=O)[C@H](Cc1ccc(O)cc1)NC(=O)[C@H](CCCCN)NC(=O)[C@H](CC(=O)O)NC(=O)[C@H](Cc1ccccc1)NC(=O)[C@H](CC(C)C)NC(=O)[C@H](C)NC(=O)[C@H](CO)NC(=O)[C@H](Cc1ccc(O)cc1)NC(C)=O)C(=O)N1CCC[C@H]1C(=O)N[C@H](CS)C(N)=O | 4500 nM | –
13 | Ac-YSILFAKYYSIPC-NH2 | 440 nM | –

Further lines, with some results ahead:

Row | IC50 [1] | Molecule | also measured
14 | 69 nM | Ac-YSILFDKYYAIPC-NH2 | –
15 | 78 nM | CC(C)C[C@@H]1NC(=O)[C@H](CCCNC(=N)N)NC(=O)[C@H](Cc2ccc(O)cc2)NC(=O)CSC[C@@H](C(N)=O)NC(=O)[C@@H]2CCCN2C(=O)[C@H](CC(C)C)NC(=O)[C@H](CCCCN)NC(=O)[C@H](Cc2ccc(O)cc2)NC(=O)[C@H]([C@@H](C)O)NC(=O)[C@H](CCC(N)=O)NC(=O)[C@H](Cc2ccccc2)NC(=O)[C@H](Cc2ccccc2)NC(=O)[C@H](Cc2c[nH]c3ccccc23)NC1=O ({CH2CO}-YRLWFFQTYKLPC-NH2; thioether N-13) | Kd [2]: 10 nM
16 | 114 nM | Ac-YSILFDKYYSIAC-NH2 | –
17 | 95 nM | Ac-YSILFDAYYDSIPC-NH2 | –
18 | 54 nM | CC[C@H](C)[C@@H]1NC(=O)[C@H](CO)NC(=O)[C@H](Cc2ccc(O)cc2)NC(=O)CSC[C@@H](C(N)=O)NC(=O)[C@@H]2CCCN2C(=O)[C@H]([C@@H](C)CC)NC(=O)[C@H](CO)NC(=O)[C@H](Cc2ccc(O)cc2)NC(=O)[C@H](Cc2ccc(O)cc2)NC(=O)[C@H](CCCCN)NC(=O)[C@H](CC(=O)O)NC(=O)[C@H](Cc2ccccc2)NC(=O)[C@H](CC(C)C)NC1=O ({CH2CO}-YSILFDKYYSIPC-NH2; thioether N-13) | Kd [2]: 2.5 nM; Activity (U2OS): Active; Stability [3]: Stable
19 | 104 nM | CC[C@H](C)[C@@H]1NC(=O)[C@H](Cc2ccc(O)cc2)NC(=O)CSC[C@@H](C(=O)N[C@@H](CC(C)C)C(=O)N[C@@H](Cc2c[nH]c3ccccc23)C(=O)N[C@@H](CO)C(N)=O)NC(=O)[C@H](Cc2ccccc2)NC(=O)[C@H](CCCCN)NC(=O)[C@H]([C@@H](C)CC)NC(=O)[C@H](C(C)C)NC(=O)[C@H]([C@@H](C)O)NC(=O)[C@H](CC(=O)O)NC(=O)[C@H]([C@@H](C)O)NC(=O)[C@H](Cc2c[nH]c3ccccc23)NC(=O)[C@H](CCCNC(=N)N)NC(=O)[C@H](CC(N)=O)NC(=O)[C@H]([C@@H](C)O)NC1=O ({CH2CO}-YITNRWTDTVIKFCLWS-NH2; thioether N-14) | Kd [2]: 2 nM
